Reference: patent publication US10342806B2, “Hormone treatment for age-related hearing loss-presbycusis” (priority 2014, dated 2019)

Experiments:
[1] = system: NKCC1; assay: NKCC1 protein expression in HT-29 cells, Western blot; assay type: cell-based, human
Text: Cell culture and buffers. […] Arch Oral Biol 52: 411-416, 2007). These include, for example, studies of COMM domain-containing protein 1, which is involved in NKCC1 ubiquitination and transcriptional regulation of epithelial Na^+ channels (ENaC) located in the apical membrane of polarized epithelial cells, in particular, cells in the colon, kidney, and lung, by ALD (Cohen, et al., Induced differentiation in HT29, a human colon adenocarcinoma cell line. J Cell Sci 112: […], 1999, Epple, et al., Early aldosterone effect in distal colon by transcriptional regulation of ENaC subunits. Am J Physiol Gastrointest Liver Physiol 278: G718-G724, 2000, Smith, et al., COMMD1 interacts with the COOH terminus of NKCC1 in Calu-3 airway epithelial cells to modulate NKCC1 ubiquitination. Am J Physiol Cell Physiol 305: C133-C146, 2013). HT-29 cells were grown in DMEM media (Invitrogen, Carlsbad Calif.) with 10% FBS and antibiotics. Cells were grown in a humidified 95%/5% CO2 incubator at 37° C. Experiments were performed at 70-80% confluence.
Western blot. Cell lysates were prepared in RIPA buffer (Pierce 89901; Thermo Scientific, Waltham, Mass.) with protease inhibitor cocktail (78430; Thermo Scientific). Cell samples were homogenized in buffer, followed by centrifugation at 2,000 rpm for 10 min at 4° C. Supernatants were subjected to Western blot analysis by loading 200 μg of protein per lane, after the protein concentrations were determined by Bradford protein assay. Proteins were fractionated by SDS-PAGE gel electrophoresis and transferred to a PVDF blotting membrane (Whatman, Piscataway, N.J.). The blot was incubated with primary antibodies against β-actin and Na—K-2C1 cotransport protein (Cell Signaling, Danvers Mass.); primary antibodies for p-SGK1, SGK1, pNedd4-2, and Nedd4-2 were utilized (concentration 1:1,000). The secondary antibody was horseradish peroxidaseconjugated goat anti-rabbit IgG (1:2,000; Cell Signaling).
Statistical analysis. Images from films were imported into Adobe Photoshop (v 5.0), and further processed using Adobe Photoshop CS and ImageJ (National Institutes of Health) for the densitometry analysis. Data are reported as means±SD. Statistical analyses were performed with PRISM 4.0 (GraphPad Software, San Diego Calif.). Differences were analyzed with a one- or a two-way repeated measures ANOVA as appropriate or a two-way ANOVA followed by Bonferroni post hoc analyses that were corrected for multiple comparisons. Values of P <0.05 were considered significant.

[2] = system: NKCC1 mRNA; assay: NKCC1 mRNA in HT-29 cells, semiquantitative and real-time RT-PCR; assay type: cell-based, human; settings: ALD 1 μM, both RT-PCR methods
Protocol: Relative quantitative RT-PCR. Total RNA was extracted using the RNAeasy Mini Kit (Qiagen, Valencia Calif.). […] Primers used for qRTPCR were as follows: […]
The semiquantitative qRT-PCR reaction took place at 45° C. for 50 min. The competition between primer sets was excluded by adjusting the reaction condition.
Then, the primer products were PCR amplified directly. A first cycle of 10 min. at 95° C., 45 s at 65° C., and 1 min at 72° C. was followed by 45 s at 95° C., 45 s at 65° C., and 1 min at 72° C. for 25 cycles. The conditions were chosen so that the RNAs analyzed were in the exponential phase of amplification. Each set of reactions always included a no-sample negative control. We usually performed a negative control containing RNA instead of cDNA to rule out genomic DNA contamination.
The real-time RT-PCR reaction mixture was prepared using the SYBR-Green PCR Master Mix. Thermal cycling conditions were the same as in the semiquantitative method. Amplification specificity was checked using melting curves. Both negative and positive controls were included in each PCR reaction. All assays were carried out three times as independent PCR runs for each cDNA sample. […] Calculations of expression were performed with the […] method (Bustin, et al., Quantitative real-time RTPCR—a perspective. J Mol Endocrinol 34: 597-601, 2005).

## C[C@]12CCC(=O)C=C1CC[C@@H]1[C@@H]2[C@@H](O)C[C@]2(C=O)[C@@H](C(=O)CO)CC[C@@H]12 [ALD, aldosterone]
[1]; ALD 1 μM, MG-132 20 μM, CQ 50 μM, 9 h
  induction of NKCC1 protein expression: induce NKCC1 protein expression similarly
[1]; ALD 1 μM, cycloheximide 20 μg/ml, 3, 6, or 9 h, relative to nontreated cells
  decline of NKCC1 protein levels in response to cycloheximide: much slower
[1]; HT-29 cells
  threshold of NKCC1 induction (significant response): ~10 pM
[1]; HT-29 cells, ALD 1 μM
  time by which NKCC1 up-regulation took effect: ≤ 2 h
[1]; HT-29 cells, ALD 1 μM, stable over 12-24 h
  NKCC1 protein expression levels: upregulated
[1]; HT-29 cells, ALD (1 nM)
  start of NKCC1 induction after treatment: 30 to 40 min
[2]
  NKCC1 mRNA: no mRNA change
